Measured values from patent publication US10806765B2, “Immunologically active phyto-mixture and its use in the prevention and in a method for treatment of efflorescences” (priority 2015, dated 2020).
Converted amounts (≈) assume the structure as drawn. Where two headings read alike, the source gives them in different places. One block for each molecule: values may come before it.

Legend:
Format in all cases: cell-based
[1] = MTT-assay, cytotoxicity of the extracts; details: human, HaCaT cells (keratinocytes), individual extracts, mean ± SD, n=3
Procedure: HaCaT-Cells (human in vitro spontaneous transformed keratinocytes from histologically normal skin) of DMSZ (German Collection of Microorganisms and Cell Cultures) were kept in Dulbecco's modified Eagle Medium (DMEM) with glutamax (Invitrogen/Gibco, Karlsruhe, Germany) with 10% fetal calf serum (Sigma Aldrich, Germany), 100 U/ml penicillin and 100 μg/ml streptomycin and 1% NEAA.
The cells were cultivated at 37° C., 5% CO2 and 95% humidity. The cells were subcultivated by removing the medium, adding 0.075% EDTA-solution in 1-fold PBS (phosphate-buffered salt solution) and subsequently incubated at 37° C. for 10 min. […]
In order to determine the concentration dependent cytotoxicity 2×10^4 HaCaT-cells/sample well of a 96-well plate were transferred and incubated for 24 hours. […] After dissolving the formazan crystals formed by the HaCaT-cells in 100 μl DMSO (10 minutes shaking), absorption at 570 nm was measured (by means of Tecan Safire II Reader, Tecan Crailsheim, Germany). Doxorubicin was measured as reference. Cell vitality was determined according to the following formula:
IC50-values were calculated through the dose response curve which was created by use of a logistic regression curve with 4 parameters with the GraphPad Prism® 5.01 Software or SigmaPlot® 11.0.

[2] = system: Acinetobacter baumanii ATCC BAA747; test: MIC/MBC, microbouillon dilution; details: Acinetobacter baumannii, ATCCBAA747
Procedure: (§1) Gram-Positive Bacteria • Methicillin resistant Staphylococcus aureus MRSA NCTC 10442 (MRSA NCTC 10442) • Staphylococcus aureus ATCC 25923 (S. aureus ATCC 25923) • Staphylococcus epidermidis ATCC 14990 (S. epid. ATCC 14990)
(§2) Gram-Negative Bacteria • Pseudomonas aeruginosa ATCC 27853 (P. aerug. ATCC 27853) and • Acinetobacter baumanii ATCC BAA747 (ATCC BAA747)
(§3) The bacteria were precultivated on Columbia medium with 5% sheep blood at 37° C. for 24 hours. On to two colonies were suspended in saline solution (0.9% NaCl) and adjusted to a turbidity of 0.5 McFarland standard which corresponds to 1×10^8 colony forming units per milliliter (CFU/ml). Subsequently, the suspension was diluted to 1×10^6 CFU/ml.
(§4) Determination of the Minimal Inhibitory Concentration (MIC) and the Minimum Bactericidal Concentration (MBC)
(§5) The MIC was determined by means of the microbouillon dilution process according to NCCLS (2006). For this purpose, the aqueous extracts were dissolved in water (w/v) and the ethanolic extracts in 5% DMSO (w/v) with 80 mg/ml each and Bur. simaruba as well as Aloe vera were suspended with 160 mg/ml. The extracts and the combinations (1:1 mixture) of two plant extracts were respectively transferred into a sample well of a 96-well plate. The individual extracts were respectively adjusted to a concentration of 4 mg/ml to 8 mg/ml and 0.03 mg/ml and the combinations to 2:2 mg/ml to 0.3:0.3 mg/ml. Subsequently, the bacteria suspensions with about 5×10^5 CFU/ml in Müller Hinton medium (Fluka) were respectively added. The accordingly fitted 96-well plates were incubated at 37° C. for 24 hours.
(§6) The MIC was determined at 600 nm on the basis of the turbidity. In order to determine the MBC, 3 μl of the suspension of the respective sample well were spread on an full culture medium and incubated at 37° C. for 24 hours. The MBC was determined as lowest concentrations of the respective extract which totally kills the microorganisms.
(§7) All experiments were performed as three-fold determination (Table 4 to 5). The antibiotics Vancomycin (briefly: Van) and Streptomycin (briefly: Strep) were used parallely to each experimental approach as positive control for antimicrobial efficiency (Table 5c). Respectively one of the mentioned test germs was carried along with the respectively solvent (water, DMSO) as negative control for an inhibiting effect by the used solvent.

[3] = system: Pseudomonas aeruginosa ATCC 27853; test: MIC/MBC, microbouillon dilution; details: ATCC27853, positive control antibiotic, unit from Table 5c
Procedure: as §1, §2, §3, §4, §5, §6, §7

[4] = system: Staphylococcus aureus ATCC 25923; test: MIC/MBC, microbouillon dilution
Procedure: as §1, §2, §3, §4, §5, §6, §7

[5] = system: Staphylococcus epidermidis ATCC 14990; test: MIC/MBC, microbouillon dilution
Procedure: as §1, §2, §3, §4, §5, §6, §7

[6] = system: Methicillin resistant Staphylococcus aureus MRSA NCTC 10442; test: MIC/MBC, microbouillon dilution
Procedure: as §1, §2, §3, §4, §5, §6, §7

SMILES: COc1cccc2c1C(=O)c1c(O)c3c(c(O)c1C2=O)C[C@@](O)(C(=O)CO)C[C@@H]3O[C@H]1C[C@H](N)[C@H](O)[C@H](C)O1 [Doxorubicin]
IC50 [1]: 8.6 ± 2.03 µg/mL (≈ 15.8 µM)

MIC ([2]; positive control antibiotic, unit from Table 5c, read-out: MIC): 2 µg/mL
MIC [3]: 4 µg/mL
MIC ([4]; ATCC25923, positive control antibiotic, unit from Table 5c): 2 µg/mL
MIC ([5]; ATCC14990, positive control antibiotic, unit from Table 5c, read-out: MIC): 1 µg/mL
SMILES: [H]/N=C(/N)N[C@H]1[C@H](O)[C@@H](O)[C@H](O[C@@H]2O[C@@H](C)[C@](O)(C=O)[C@H]2O[C@@H]2O[C@@H](CO)[C@H](O)[C@@H](O)[C@@H]2NC)[C@@H](N/C(N)=N\[H])[C@@H]1O [Strep, Streptomycin]
MBC ([2]; positive control antibiotic, unit from Table 5c, read-out: MBC): 4 µg/mL
MBC [3]: 8 µg/mL
MBC ([4]; ATCC25923, positive control antibiotic, unit from Table 5c, read-out: MBC): 8 µg/mL
MBC ([5]; ATCC14990, positive control antibiotic, unit from Table 5c, read-out: MBC): 8 µg/mL

SMILES: CN[C@H](CC(C)C)C(=O)N[C@H]1C(=O)N[C@@H](CC(N)=O)C(=O)N[C@H]2C(=O)N[C@H]3C(=O)N[C@H](C(=O)N[C@H](C(=O)O)c4cc(O)cc(O)c4-c4cc3ccc4O)[C@H](O)c3ccc(c(Cl)c3)Oc3cc2cc(c3O[C@@H]2O[C@H](CO)[C@@H](O)[C@H](O)[C@H]2O[C@H]2C[C@](C)(N)[C@H](O)[C@H](C)O2)Oc2ccc(cc2Cl)[C@H]1O [Van, Vancomycin]
MBC [2]: 128 µg/mL
MIC [2]: 64 µg/mL
MBC [6]: 2 µg/mL
MIC [6]: 1 µg/mL
MBC ([4]; ATCC25923): 0.5 µg/mL
MBC ([5]; ATCC14990): 2 µg/mL
MIC ([5]; ATCC14990): 1 µg/mL
